Patent publication US20120214778A1 (priority 2009, published 2012)

Tests used:
[1] = CONFIRM phase III study: safety and tolerability (adverse events); type: in vivo, postmenopausal women
From the text: Outcome variables for safety were frequency and severity of adverse events (AEs), including pre-specified AEs of interest.
Patients could be discontinued from study treatment and assessments at any time at the discretion of the investigators. Patients were also free to discontinue their participation in the study at any time, without prejudice to further treatment. Specific reasons for discontinuing a patient from this study, and the procedures to be followed when a patient discontinued or was incorrectly enrolled, are listed in Section 3.3.5 of the CSP. For patients who discontinued, it was noted whether they were assessed after study medication was stopped, and whether they were asked about the reason(s) for their discontinuation and about the presence of any adverse events (AEs). If possible, they were seen and assessed by an investigator. AEs were followed up for 56 days after the last injection.

advanced breast cancer = details: 250 mg, cited from earlier work
[2] = test system: oestrogen receptor positive advanced breast cancer; assay: CONFIRM phase III study, fulvestrant 500 mg vs 250 mg: efficacy; details: for Number progressed / Number progressed (%): progressed or died at data cut-off; for Median DoR: from randomisation, patients with OR;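 as to all read-outs here: efficacy outcomes summarised by randomised treatment arm using the full analysis set of patients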
Experimental: The primary outcome variable TTP; secondary variables were ORR, CBR, DoR, DoCB and OS.
For the primary endpoint TTP, the primary analysis was an unadjusted log-rank test and the secondary analysis was a Cox proportional hazard model, adjusted for treatment and other predefined covariates.
For OS, the unadjusted log-rank test was performed. For ORR and CBR, a logistic regression model with treatment factor only was fitted. […] For HRQoL endpoints, a longitudinal model with treatment and other covariates was used.
For efficacy and HRQoL endpoints, summaries and analyses were carried out according to the randomised treatment i.e., using the Full Analysis Set. For safety endpoints, summaries and analyses were carried out according to the treatment actually received, i.e., using the safety analysis set. The primary endpoint was also analysed in the per protocol set (PPS).
Time to progression is the time between randomisation and the earliest of progression or death from any cause.

In the case of `C[C@]12CC[C@@H]3c4ccc(O)cc4C[C@@H](CCCCCCCCC[S+]([O-])CCCC(F)(F)C(F)(F)F)[C@H]3[C@@H]1CC[C@@H]2O` (stereo partly drawn) [fulvestrant, 7alpha-[9-(4,4,5,5,5-pentafluoropentylsulfinyl)-nonyl]estra-1,3,5, (10)-triene-3, 17beta-diol], the “gastrointestinal disturbances (pre-specified AE), patients” value ([1]; 250 mg) is reported as “approximately 20%”, the “joint disorders (pre-specified AE), patients” value ([1]; 250 mg) is reported as ~19% and the “gastrointestinal disturbances (pre-specified AE), patients” value ([1]; 500 mg) is reported as “approximately 20%”. The “joint disorders (pre-specified AE), patients” value ([1]; 500 mg) was ~19%, the tolerability ([1]; 500 mg) was “well tolerated” and the “dose dependence of adverse events” value ([1]; 500 mg vs 250 mg) was “no evidence for dose dependence for any AE”. The “efficacy compared with anastrozole” value (advanced breast cancer; Studies 20/21) was “non-inferior to anastrozole”, the “Median TTP” value (advanced breast cancer; combined analysis of Studies 20/21) was 5.5 months and the “Time to progression (months): 25% quartile” value ([2]; 250 mg) was 2.7 months. For the same compound, the “Time to progression (months): 75% quartile” value ([2]; 250 mg) was 11.9 months, the “expected DoCB (EDoCB)” value ([2]; 250 mg) was 7.24 months and the “proportion of patients with a best objective response of progressive disease” value ([2]; 250 mg) was 44.7%. The “Median TTP” value ([2]; 250 mg im every 28 days, N = 374) was 5.5 months, the “Percentage of patients progression free at 6 months” value ([2]; 250 mg) was 45% and the “% patients progression free at 12 months” value ([2]; 250 mg) was 25%. For the same compound, the “% patients progression free at 12 months” value ([2]; 250 mg, listed as Fulvestrant) was 25%, the “Percentage of patients progression free at 18 months” value ([2]; 250 mg) was 14% and the “% patients alive at 24 months” value ([2]; 250 mg) was “fulvestrant 250 mg = 49%”. For the same compound, the “Percentage of patients progression free at 24 months” value ([2]; 250 mg) was 11%, the Number progressed ([2]; 250 mg, N = 374) was 321 and the “Number progressed (%)” value ([2]; 250 mg, N = 374) was 85.8%. The “Median DoR” value ([2]; 250 mg) was 250 mg = 16.4 months, the “Time to progression (months): 25% quartile” value ([2]; 500 mg) was 2.8 months and the “Time to progression (months): 75% quartile” value ([2]; 500 mg) was 16.6 months. The “expected DoCB (EDoCB)” value ([2]; 500 mg) was 9.83 months, the “proportion of patients with a best objective response of progressive disease” value ([2]; 500 mg) was 38.7% and the “reduction in risk of death” value ([2]; 500 mg compared with 250 mg) was 16%. For the same compound, the “reduction in risk of progression” value ([2]; 500 mg compared with 250 mg) was 20%, the “Median TTP” value ([2]; 500 mg im days 0, 14, 28 then every 28 days, N = 362) was 6.5 months and the “Ratio of EDoR (95% CI)” value ([2]; 500 mg vs 250 mg, from randomisation to progression) was “Ratio of EDoR = 0.894 (95% CI 0.479-1.667); p = 0.724”. For the same compound, the “Percentage of patients progression free at 6 months” value ([2]; 500 mg) was 51%, the “% patients progression free at 12 months” value ([2]; 500 mg) was 34% and the “% patients progression free at 12 months” value ([2]; 500 mg, listed as Fulvestrant) was 34%. The “Percentage of patients progression free at 18 months” value ([2]; 500 mg) was 23%, the “% patients alive at 24 months” value ([2]; 500 mg) was “% patients alive at 24 months: fulvestrant 500 mg = 53%;” and the “Percentage of patients progression free at 24 months” value ([2]; 500 mg) was 16%. For the same compound, the Number progressed ([2]; 500 mg, N = 362) was 297, the “Number progressed (%)” value ([2]; 500 mg, N = 362) was 82.0% and the “Median DoR” value ([2]; 500 mg) was “Median DoR^c: fulvestrant 500 mg = 19.4 months; fulvestrant”.
